For 34 molecules, Ki and MIC results are on record in ChEMBL document CHEMBL2331411, “Pyrrolopyrimidine inhibitors of DNA gyrase B (GyrB) and topoisomerase IV (ParE). Part I: Structure guided discovery and optimization of dual targeting agents with potent, broad-spectrum enzymatic activity” (Bioorg Med Chem Lett, 2013).

A short description of assay [1]: Inhibition of Francisella tularensis DNA gyrase subunit B using ATP as substrate assessed as release of inorganic phosphate incubated for 10 mins prior to substrate addition measured after 30 mins by spectrophotometric analysis.
Assay [2] in a line: Inhibition of Francisella tularensis DNA topoisomerase 4 subunit B using ATP as substrate assessed as release of inorganic phosphate incubated for 10 mins prior to substrate addition measured after 30 mins by spectrophotometric analysis.
Assay [3] can be described thus: Inhibition of Enterococcus faecalis DNA gyrase subunit B using ATP as substrate assessed as release of inorganic phosphate incubated for 10 mins prior to substrate addition measured after 30 mins by spectrophotometric analysis.
Assay [4] is described as follows: Inhibition of Enterococcus faecalis DNA topoisomerase 4 subunit B using ATP as substrate assessed as release of inorganic phosphate incubated for 10 mins prior to substrate addition measured after 30 mins by spectrophotometric analysis.
A short description of assay [5]: Inhibition of Escherichia coli DNA topoisomerase 4 subunit B using ATP as substrate assessed as release of inorganic phosphate incubated for 10 mins prior to substrate addition measured after 30 mins by spectrophotometric analysis.
Assay [6] deals with Staphylococcus aureus. Put plainly: Antibacterial activity against Staphylococcus aureus assessed as growth inhibition. The class given is functional.
Assay [7] in a line: Inhibition of Acinetobacter baumannii DNA topoisomerase 4 subunit B using ATP as substrate assessed as release of inorganic phosphate incubated for 10 mins prior to substrate addition measured after 30 mins by spectrophotometric analysis.

Converted amounts (≈) assume the structure as drawn.

`CCc1[nH]c2nc(Sc3ccc4c(c3)C(=O)NC4)nc(N3CC[C@@H](N)C3)c2c1Cl`: the Ki in assay [1] came to 9 nM; in assay [2], 2 nM; in assay [3], 7 nM; in assay [4], 19 nM; in assay [5], 11 nM.
Take `CCc1[nH]c2nc(Sc3cnc4[nH][nH]c(=O)c4c3)nc(N3CC[C@@H](N)C3)c2c1Cl`: the Ki in assay [1] was 5 nM; in assay [2], 4 nM; in assay [3] it was 6 nM; in assay [4], 24 nM; in assay [5], 6 nM.
Regarding `CCc1[nH]c2nc(Sc3ccc4nc[nH]c(=O)c4c3)nc(N3CC[C@@H](N)C3)c2c1Cl`, the Ki in assay [2] is 2 nM; in assay [3], less than 1 nM; in assay [4], 14 nM; in assay [5] it was 4 nM.
As for `CCc1[nH]c2nc(Sc3cnc4ncc(=O)[nH]c4c3)nc(N3CC[C@@H](N)C3)c2c1Cl`, the Ki in assay [1] was 1 nM; in assay [2], 6 nM; in assay [3], less than 1 nM; in assay [4] it was 13 nM; in assay [5] it was 11 nM.
Consider `CCc1[nH]c2nc(Sc3ccc4cc5c(nc4c3)C(=O)OC5)nc(N3CC[C@@H](N)C3)c2c1Cl`, for which the Ki in assay [2] was 2 nM; in assay [3], less than 1 nM; in assay [4] it was less than 1 nM; in assay [5] it was less than 1 nM.
As for `CCc1[nH]c2nc(Sc3cncnc3)nc(N3CC4C(N)C4C3)c2c1Cl` (configuration not stated), the Ki came out at 2 nM in assay [1]; 15 nM in assay [2]; 5 nM in assay [3]; 79 nM in assay [4]; 36 nM in assay [5].
The corresponding values for `CCc1[nH]c2nc(Sc3cnc4cccnc4c3)nc(N3CC4C(N)C4C3)c2c1Cl` (configuration not stated) are less than 1 nM, 2 nM, 1 nM, 10 nM and 1 nM.
In the same order, the values of `CCc1[nH]c2nc(Oc3cncnc3)nc(N3CC[C@@H](N)C3)c2c1Cl` are 3 nM, 15 nM, less than 1 nM, 84 nM and 38 nM.
`CCc1[nH]c2nc(Oc3cncnc3)nc(N3CC4C(N)C4C3)c2c1Cl` (configuration not stated): the Ki in assay [2] was 2 nM; in assay [3], less than 1 nM; in assay [4], 10 nM; in assay [5], 4 nM.
`CCc1[nH]c2nc(Oc3cnc4cccnc4c3)nc(N3CC4C(N)C4C3)c2c1Cl` (configuration not stated): the Ki is less than 1 nM in assay [3], 3 nM in assay [4] and less than 1 nM in assay [5].
For `CCc1[nH]c2nc(Sc3cnc4nccnc4c3)nc(N3CCC(N)CC3)c2c1Cl`, the Ki is 3 nM in assay [1]; 6 nM in assay [2]; less than 1 nM in assay [3]; 69 nM in assay [4]; 36 nM in assay [5].
On to `CCc1[nH]c2nc(Sc3cnc4nccnc4c3)nc(N3C[C@H]4CN[C@H]4C3)c2c1Cl`, for which the Ki in assay [2] is 1 nM; in assay [3] it was less than 1 nM; in assay [4], 9 nM; in assay [5], 2 nM.
Consider `CCc1[nH]c2nc(Sc3cnc4nccnc4c3)nc(N3C[C@H]4CCN[C@H]4C3)c2c1Cl`, for which the Ki in assay [1] is less than 1 nM; in assay [2] it was 9 nM; in assay [3], 6 nM; in assay [4] it was 19 nM; in assay [5], 6 nM.
Turning to `CCc1[nH]c2nc(Sc3cnc4nccnc4c3)nc(N3C[C@H]4CCCN[C@H]4C3)c2c1Cl`, the Ki was less than 1 nM in assay [1]; 10 nM in assay [2]; 9 nM in assay [3]; 29 nM in assay [4]; 17 nM in assay [5].
As to `CCc1[nH]c2nc(Sc3cnc4nccnc4c3)nc(N3CC4C(N)C4C3)c2c1Cl` (configuration not stated), the results for the Ki in assay [3], in assay [4] and in assay [5] were less than 1 nM, 4 nM and less than 1 nM, respectively.
For the molecule `CCc1[nH]c2nc(Sc3cncnc3)nc(N3CC[C@@H](N)C3)c2c1Cl`, the Ki in assay [1] is 8 nM; in assay [2], 36 nM; in assay [3], 4 nM; in assay [4] it was 157 nM; in assay [5], 127 nM.
For the molecule `CCc1[nH]c2nc(Sc3ccc4cccnc4c3)nc(N3CC[C@@H](N)C3)c2c1Cl`, the Ki was found to be 10 nM in assay [1]; 27 nM in assay [2]; 4 nM in assay [3]; 148 nM in assay [4]; 80 nM in assay [5].
On to `CCc1[nH]c2nc(Sc3ccc4ccc[n+]([O-])c4c3)nc(N3CC[C@@H](N)C3)c2c1Cl`, for which the inhibition constant (Ki) in assay [2] was 3 nM; in assay [3], less than 1 nM; in assay [4], 15 nM; in assay [5], 7 nM.
Take `CCc1[nH]c2nc(Sc3cnc4cccnc4c3)nc(N3CC[C@@H](N)C3)c2c1Cl`: the Ki is less than 1 nM in assay [3], 2 nM in assay [4] and less than 1 nM in assay [5].
With `CCc1[nH]c2nc(Sc3ccc4cncnc4c3)nc(N3CC[C@@H](N)C3)c2c1Cl`, the Ki in assay [2] was 2 nM; in assay [3] it was less than 1 nM; in assay [4], 7 nM; in assay [5], 5 nM.
In the same order, the values of `CCc1[nH]c2nc(Sc3cnc4ccc[n+]([O-])c4c3)nc(N3CC[C@@H](N)C3)c2c1Cl` are 1 nM, less than 1 nM, 5 nM and 5 nM.
In the same order, the values of `CCc1[nH]c2nc(Sc3ccc4ccc(C(=O)O)nc4c3)nc(N3CC[C@@H](N)C3)c2c1Cl` are 4 nM, less than 1 nM, 4 nM and 2 nM.
In the same order, the values of `CCc1[nH]c2nc(Sc3ccc4c(N5CCC(N)C5)cc(C(=O)O)nc4c3)nc(N3CC[C@@H](N)C3)c2c1Cl` (some centres not stated) are 6 nM, less than 1 nM, 19 nM and 7 nM.
Consider `CCc1[nH]c2nc(Sc3ccc4nc(N)n[n+]([O-])c4c3)nc(N3CC[C@@H](N)C3)c2c1Cl`, for which the figures for the Ki in assay [3], in assay [4] and in assay [5] were less than 1 nM, 7 nM and 2 nM, respectively.
`CCc1cc2c(Cl)nc(Sc3cccnc3)nc2[nH]1`: the Ki in assay [3] is more than 50000 nM. For the same molecule, the MIC in assay [6] was more than 64 µg/mL.
Consider `CCc1[nH]c2nc(Sc3cccnc3)nc(Cl)c2c1C=O`, for which the Ki in assay [1] amounted to 1200 nM; in assay [2], 8700 nM; in assay [3] it was 800 nM; in assay [4], 3700 nM. In assay [6], the MIC came to 64 µg/mL (≈ 201 µM).
In the same order, the values of `CCc1[nH]c2nc(Sc3cccnc3)nc(Cl)c2c1C(C)=O` are 6600 nM, more than 20000 nM, 2000 nM, 1000 nM and 64 µg/mL (≈ 192 µM).
In the same order, the values of `CCc1[nH]c2nc(Sc3cccnc3)nc(Cl)c2c1C(F)F` are 500 nM, 400 nM, 1700 nM, 1200 nM and 64 µg/mL (≈ 188 µM).
Turning to `CCc1[nH]c2nc(Sc3cccnc3)nc(Cl)c2c1Cl`, the Ki in assay [1] came out at 500 nM; in assay [3], 400 nM; in assay [7] it was 2000 nM; in assay [4] it was 3500 nM. Also, the MIC in assay [6] amounted to 4 µg/mL (≈ 12.3 µM).
For the molecule `CCc1[nH]c2nc(Sc3cccnc3)nc(Cl)c2c1Br`, the Ki in assay [1] worked out at 400 nM; in assay [2], 1200 nM; in assay [3], 300 nM; in assay [4] it was 3500 nM. In addition, in assay [6], the MIC was determined as 2 µg/mL (≈ 5.41 µM).
As for `CCc1[nH]c2nc(Sc3cccnc3)nc(OC)c2c1C=O`, the Ki in assay [1] came out at 800 nM; in assay [2] it was 900 nM; in assay [3] it was 200 nM; in assay [4] it was 1200 nM.
On to `CCc1[nH]c2nc(Sc3cnc4nccnc4c3)nc(N3CC(N)C3)c2c1Cl`, for which the Ki in assay [1] was found to be 7 nM; in assay [2] it was 4 nM; in assay [3], 4 nM; in assay [4] it was 65 nM; in assay [5] it was 39 nM.
Turning to `CCc1[nH]c2nc(Sc3cnc4nccnc4c3)nc(N3CC[C@@H](N)C3)c2c1Cl`, the Ki in assay [1] was less than 1 nM; in assay [2], 4 nM; in assay [3] it was 2 nM; in assay [4], 23 nM; in assay [5], 11 nM.
As to `CCc1[nH]c2nc(Sc3ccc4[nH]cc(C(=O)O)c(=O)c4c3)nc(N3CC[C@@H](N)C3)c2c1Cl`, the values for the Ki in assay [3], in assay [4] and in assay [5] were less than 1 nM, 6 nM and less than 1 nM, respectively.
